Experiments:
Type in all cases: in vivo
Spodoptera littoralis = Spodoptera littoralis (Egyptian cotton leaf worm) cotton leaf disc test; conditions: foliar, 72 h, read-out: control (at least one of mortality, anti-feedant effect, and growth inhibition)
Description: Spodoptera littoralis (Egyptian Cotton Leaf Worm)
Cotton leaf discs were placed on agar in 24-well microtiter plates and sprayed with aqueous test solutions prepared from 10′000 ppm DMSO stock solutions. After drying the leaf discs were infested with five L1 larvae. The samples were assessed for mortality, anti-feedant effect, and growth inhibition in comparison to untreated samples 3 days after infestation. Control of Spodoptera littoralis by a test sample is when at least one of mortality, anti-feedant effect, and growth inhibition is higher than the untreated sample.

Plutella xylostella = Plutella xylostella (diamond back moth) artificial diet test; conditions: 120 h, read-out: effect in at least one of the two categories (mortality or growth inhibition)
Description: Plutella xylostella (Diamond Back Moth):
24-well microtiter plates with artificial diet were treated with aqueous test solutions prepared from 10′000 ppm DMSO stock solutions by pipetting. After drying, the plates were infested with L2 larvae (10 to 15 per well). The samples were assessed for mortality and growth inhibition in comparison to untreated samples 5 days after infestation. The following compounds gave an effect of at least 80% in at least one of the two categories (mortality or growth inhibition) at an application rate of 200 ppm: […]

Diabrotica Balteata = test: Diabrotica balteata (corn root worm) maize sprout test; conditions: 96 h, read-out: effect in at least one of the two categories (mortality or growth inhibition)
Description: Diabrotica Balteata, (Corn Root Worm)
Maize sprouts, placed on an agar layer in 24-well microtiter plates were treated with aqueous test solutions prepared from 10′000 ppm DMSO stock solutions by spraying. After drying, the plates were infested with L2 larvae (6 to 10 per well). The samples were assessed for mortality and growth inhibition in comparison to untreated samples 4 days after infestation. The following compounds gave an effect of at least 80% in at least one of the two categories (mortality or growth inhibition) at an application rate of 200 ppm: […]

Thrips tabaci = Thrips tabaci (onion thrips) sunflower leaf disc test; conditions: foliar, 144 h
Description: Thrips tabaci (Onion Thrips):
Sunflower leaf discs were placed on agar in 24-well microtiter plates and sprayed with aqueous test solutions prepared from 10′000 ppm DMSO stock solutions. After drying the leaf discs were infested with a thrips population of mixed ages. The samples were assessed for mortality 6 days after infestation.

Tetranychus urticae = Tetranychus urticae (two-spotted spider mite) bean leaf disc test; conditions: foliar, 192 h
Description: Tetranychus urticae (Two-Spotted Spider Mite):
Bean leaf discs on agar in 24-well microtiter plates were sprayed with aqueous test solutions prepared from 10′000 ppm DMSO stock solutions. After drying the leaf discs were infested with a mite population of mixed ages. The samples were assessed for mortality on mixed population (mobile stages) 8 days after infestation.

Myzus persicae = Myzus persicae (green peach aphid) sunflower leaf disc test; conditions: foliar, 144 h
Description: Myzus persicae (Green Peach Aphid):
Sunflower leaf discs were placed on agar in a 24-well microtiter plate and sprayed with test solutions at an application rate of 200 ppm. After drying, the leaf discs were infested with an aphid population of mixed ages. After an incubation period of 6 days after treatment, samples were checked for mortality. The following compounds gave at least 80% mortality of Myzus persicae: […]

Cc1cc(C2=NO[C@@](c3cc(Cl)cc(C(F)(F)F)c3)(C(F)(F)F)C2)ccc1C(=O)N(C=O)C1CC(Cl)=NO1 (stereo partly drawn) [Compound A012, N-(3-chloro-4,5-dihydroisoxazol-5-yl)-4-[(5S)-5-[3-chloro-5-(trifluoromethyl)phenyl]-5-(trifluoromethyl)-4H-isoxazol-3-yl]-N-formyl-2-methyl-benzamide]
≥ 80%: percent control (mortality, anti-feedant effect or growth inhibition) at 200 ppm (Spodoptera littoralis) | percent effect (mortality or growth inhibition) at 200 ppm (Plutella xylostella) | percent effect (mortality or growth inhibition) at 200 ppm (Diabrotica Balteata) | mortality at 200 ppm (Thrips tabaci) | mortality at 200 ppm (Tetranychus urticae) | mortality at 200 ppm (Myzus persicae)

Cc1cc(C2=NO[C@@](c3cc(Cl)c(F)c(Cl)c3)(C(F)(F)F)C2)ccc1C(=O)N(C(=O)OC(C)(C)C)C1CC=NO1 (stereo partly drawn) [Compound A086, tert-butyl N-[4-[(5S)-5-(3,5-dichloro-4-fluoro-phenyl)-5-(trifluoromethyl)-4H-isoxazol-3-yl]-2-methyl-benzoyl]-N-(4,5-dihydroisoxazol-5-yl)carbamate]
≥ 80%: percent control (mortality, anti-feedant effect or growth inhibition) at 200 ppm (Spodoptera littoralis) | percent effect (mortality or growth inhibition) at 200 ppm (Plutella xylostella) | percent effect (mortality or growth inhibition) at 200 ppm (Diabrotica Balteata) | mortality at 200 ppm (Thrips tabaci) | mortality at 200 ppm (Tetranychus urticae) | mortality at 200 ppm (Myzus persicae)

CC1=NOC(NC(=O)c2ccc(C3=NO[C@@](c4cc(Cl)cc(Cl)c4)(C(F)(F)F)C3)cc2C)C1 (stereo partly drawn) [Compound A141]
≥ 80%: percent control (mortality, anti-feedant effect or growth inhibition) at 200 ppm (Spodoptera littoralis) | percent effect (mortality or growth inhibition) at 200 ppm (Plutella xylostella) | percent effect (mortality or growth inhibition) at 200 ppm (Diabrotica Balteata) | mortality at 200 ppm (Thrips tabaci) | mortality at 200 ppm (Tetranychus urticae) | mortality at 200 ppm (Myzus persicae)

CCNC(=O)COC1=NOC(NC(=O)c2ccc(C3=NO[C@@](c4cc(Cl)c(Cl)c(Cl)c4)(C(F)(F)F)C3)cc2C)C1 (stereo partly drawn) [Compound A115, N-[3-[2-(ethylamino)-2-oxo-ethoxy]-4,5-dihydroisoxazol-5-yl]-2-methyl-4-[(5S)-5-(3,4,5-trichlorophenyl)-5-(trifluoromethyl)-4H-isoxazol-3-yl]benzamide]
≥ 80%: percent control (mortality, anti-feedant effect or growth inhibition) at 200 ppm (Spodoptera littoralis) | percent effect (mortality or growth inhibition) at 200 ppm (Plutella xylostella) | percent effect (mortality or growth inhibition) at 200 ppm (Diabrotica Balteata) | mortality at 200 ppm (Thrips tabaci) | mortality at 200 ppm (Tetranychus urticae) | mortality at 200 ppm (Myzus persicae)

Cc1cc(C2=NO[C@@](c3cc(Cl)c(Cl)c(Cl)c3)(C(F)(F)F)C2)ccc1C(=O)NC1CC(OCc2ccccc2)=NO1 (stereo partly drawn) [Compound A110, N-(3-benzyloxy-4,5-dihydroisoxazol-5-yl)-2-methyl-4-[(5S)-5-(3,4,5-trichlorophenyl)-5-(trifluoromethyl)-4H-isoxazol-3-yl]benzamide]
≥ 80%: percent control (mortality, anti-feedant effect or growth inhibition) at 200 ppm (Spodoptera littoralis) | percent effect (mortality or growth inhibition) at 200 ppm (Plutella xylostella) | percent effect (mortality or growth inhibition) at 200 ppm (Diabrotica Balteata) | mortality at 200 ppm (Thrips tabaci) | mortality at 200 ppm (Tetranychus urticae) | mortality at 200 ppm (Myzus persicae)

Cc1cc(C2=NO[C@@](c3cc(Cl)c(F)c(Cl)c3)(C(F)(F)F)C2)ccc1C(=O)NC1CC=NO1 (stereo partly drawn) [Compound A091]
≥ 80%: percent control (mortality, anti-feedant effect or growth inhibition) at 200 ppm (Spodoptera littoralis) | percent effect (mortality or growth inhibition) at 200 ppm (Plutella xylostella) | percent effect (mortality or growth inhibition) at 200 ppm (Diabrotica Balteata) | mortality at 200 ppm (Thrips tabaci) | mortality at 200 ppm (Tetranychus urticae) | mortality at 200 ppm (Myzus persicae)

CO/N=C/C1=NOC(NC(=O)c2ccc(C3=NO[C@@](c4cc(Cl)c(F)c(Cl)c4)(C(F)(F)F)C3)cc2C)C1 (stereo partly drawn) [Compound A119, 4-[(5S)-5-(3,5-dichloro-4-fluoro-phenyl)-5-(trifluoromethyl)-4H-isoxazol-3-yl]-N-[3-[(E)-methoxyiminomethyl]-4,5-dihydroisoxazol-5-yl]-2-methyl-benzamide]
≥ 80%: percent control (mortality, anti-feedant effect or growth inhibition) at 200 ppm (Spodoptera littoralis) | percent effect (mortality or growth inhibition) at 200 ppm (Plutella xylostella) | percent effect (mortality or growth inhibition) at 200 ppm (Diabrotica Balteata) | mortality at 200 ppm (Thrips tabaci) | mortality at 200 ppm (Tetranychus urticae) | mortality at 200 ppm (Myzus persicae)

Cc1cc(C2=NO[C@@](c3cc(Cl)c(Cl)c(Cl)c3)(C(F)(F)F)C2)ccc1C(=O)NC1CC(OCCC(C)C)=NO1 (stereo partly drawn) [Compound A106, N-(3-isopentyloxy-4,5-dihydroisoxazol-5-yl)-2-methyl-4-[(5S)-5-(3,4,5-trichlorophenyl)-5-(trifluoromethyl)-4H-isoxazol-3-yl]benzamide]
≥ 80%: percent control (mortality, anti-feedant effect or growth inhibition) at 200 ppm (Spodoptera littoralis) | percent effect (mortality or growth inhibition) at 200 ppm (Plutella xylostella) | percent effect (mortality or growth inhibition) at 200 ppm (Diabrotica Balteata) | mortality at 200 ppm (Thrips tabaci) | mortality at 200 ppm (Tetranychus urticae) | mortality at 200 ppm (Myzus persicae)

Cc1cc(C2=NO[C@@](c3cc(Cl)c(F)c(Cl)c3)(C(F)(F)F)C2)ccc1C(=O)NC1CC(OCC(C)C)=NO1 (stereo partly drawn) [Compound A073]
≥ 80%: percent control (mortality, anti-feedant effect or growth inhibition) at 200 ppm (Spodoptera littoralis) | percent effect (mortality or growth inhibition) at 200 ppm (Plutella xylostella) | percent effect (mortality or growth inhibition) at 200 ppm (Diabrotica Balteata) | mortality at 200 ppm (Thrips tabaci) | mortality at 200 ppm (Tetranychus urticae) | mortality at 200 ppm (Myzus persicae)

CCOC1=NOC(NC(=O)c2ccc(C3=NO[C@@](c4cc(Cl)cc(C(F)(F)F)c4)(C(F)(F)F)C3)cc2Cl)C1 (stereo partly drawn) [Compound A066]
≥ 80%: percent control (mortality, anti-feedant effect or growth inhibition) at 200 ppm (Spodoptera littoralis) | percent effect (mortality or growth inhibition) at 200 ppm (Plutella xylostella) | percent effect (mortality or growth inhibition) at 200 ppm (Diabrotica Balteata) | mortality at 200 ppm (Thrips tabaci) | mortality at 200 ppm (Tetranychus urticae) | mortality at 200 ppm (Myzus persicae)

CC1=NOC(N(C=O)C(=O)c2ccc(C3=NO[C@@](c4cc(Cl)c(Cl)c(Cl)c4)(C(F)(F)F)C3)cc2Br)C1 (stereo partly drawn) [Compound A035, 2-bromo-N-formyl-N-(3-methyl-4,5-dihydroisoxazol-5-yl)-4-[(5S)-5-(3,4,5-trichlorophenyl)-5-(trifluoromethyl)-4H-isoxazol-3-yl]benzamide]
≥ 80%: percent control (mortality, anti-feedant effect or growth inhibition) at 200 ppm (Spodoptera littoralis) | percent effect (mortality or growth inhibition) at 200 ppm (Plutella xylostella) | percent effect (mortality or growth inhibition) at 200 ppm (Diabrotica Balteata) | mortality at 200 ppm (Thrips tabaci) | mortality at 200 ppm (Tetranychus urticae) | mortality at 200 ppm (Myzus persicae)

COC1=NO[C@H](NC(=O)c2ccc(C3=NO[C@@](c4cc(Cl)c(F)c(Cl)c4)(C(F)(F)F)C3)cc2C)C1 (single isomer, unassigned) [Compound A150]
≥ 80%: percent control (mortality, anti-feedant effect or growth inhibition) at 200 ppm (Spodoptera littoralis) | percent effect (mortality or growth inhibition) at 200 ppm (Plutella xylostella) | percent effect (mortality or growth inhibition) at 200 ppm (Diabrotica Balteata) | mortality at 200 ppm (Thrips tabaci) | mortality at 200 ppm (Tetranychus urticae) | mortality at 200 ppm (Myzus persicae)

CCOC1=NO[C@H](NC(=O)c2ccc(C3=NO[C@@](c4cc(Cl)cc(Cl)c4)(C(F)(F)F)C3)cc2C)C1 (single isomer, unassigned) [Compound A158]
≥ 80%: percent control (mortality, anti-feedant effect or growth inhibition) at 200 ppm (Spodoptera littoralis) | percent effect (mortality or growth inhibition) at 200 ppm (Plutella xylostella) | percent effect (mortality or growth inhibition) at 200 ppm (Diabrotica Balteata) | mortality at 200 ppm (Thrips tabaci) | mortality at 200 ppm (Tetranychus urticae) | mortality at 200 ppm (Myzus persicae)

COC1=NOC(NC(=O)c2ccc(C3=NO[C@@](c4cc(Cl)cc(Cl)c4)(C(F)(F)F)C3)cc2C)C1 (stereo partly drawn) [Compound A054]
≥ 80%: percent control (mortality, anti-feedant effect or growth inhibition) at 200 ppm (Spodoptera littoralis) | percent effect (mortality or growth inhibition) at 200 ppm (Plutella xylostella) | percent effect (mortality or growth inhibition) at 200 ppm (Diabrotica Balteata) | mortality at 200 ppm (Thrips tabaci) | mortality at 200 ppm (Tetranychus urticae) | mortality at 200 ppm (Myzus persicae)

Source: patent US10499642B2, “Isoxazoline-substituted benzamides and analogues as insecticides” (SYNGENTA PARTICIPATIONS AG, priority 2015, dated 2019)
